Where two headings read alike, the source gives them in different places.
What was measured:
serum uric acid = experiment: Phase 2 clinical trial (NCT03934099): serum uric acid concentration in gout patients; format: in vivo, human; conditions: for average maximum degree of reduction in serum uric acid: FIG. 3; for patients with serum uric acid concentration <6 mg/dL: gout patients, with colchicine 0.6 mg; for average serum uric acid concentration: within 2 weeks after starting administration
Description: A phase 2 clinical trial was conducted to analyze the dosage, TEAEs, and the like when the compound of Formula 1 (1-(3-cyano-1-isopropyl-indol-5-yl)pyrazol-4-carboxylic acid; compound of Example 1) is administered to a gout patient group.
• 1. Written informed consent (signed and dated) provided voluntarily prior to the start of the study. • 2. Male or female aged from 18 to 75 • 3. History or experience of hyperuricemia and gout in accordance with the criteria of the American College of Rheumatology. • 4. Self-reported history of 2 or more gout flare within 12 months prior to screening visit (Visit 1). • 5. Serum uric acid (sUA) levels at Visit 1 of 6.0 mg/dL or more in subjects who were receiving urate lower therapy (ULT) with allopurinol, febuxostat, probenecid, or lesinurad; and sUA levels at Visit 1 of 8.0 mg/dL or more and 12.0 mg/dL or less in subjects who had no history of receiving the ULT or were not receiving the ULT at visit 1. • 6. sUA levels of 8.0 mg/dL or more and 12.0 mg/dL or less at Visit 3. • 7. Body mass index of 42 kg/m^2 or less at screening visit (Visit 1). • 8. Estimated glomerular filtration rate (eGFR) of 60 mL/min/1.73 m^2 or more at screening visit (Visit 1). • 9. Subjects of childbearing potential with a negative pregnancy test result at screening visit (Visit 1). Subjects (female subjects of childbearing potential and male subjects with partners of childbearing potential) consented to use adequate methods of contraception to avoid pregnancy during the study period. • 10. Able to understand the study procedure and relevant risk, and willing to comply with the visit/protocol schedule.
• 1. Presence of secondary hyperuricemia caused by myeloproliferative disorder, organ transplantation, or the like. • 2. Experience of any active acute gout flare within 3 weeks prior to screening visit (Visit 1). • 3. Aspartate aminotransferase or alanine aminotransferase level exceeds 2 times upper limit of normal (ULN) at screening visit (Visit 1). • 4. Creatine kinase level exceeds 2.5 times ULN at screening visit (Visit 1). • 5. Presence of previous hypersensitivity to colchicine. • 6. Patients who have ever prescribed pegloticase within 3 months prior to screening visit (Visit 1). • 7. If a stable dose of drugs (losartan, fibrate, thiazide diuretics, loop diuretics, and acetylsalicylic acid) known to affect sUA levels has not been administered during the past 6 weeks prior to screening visit (Visit 1), acetylsalicylic acid is not allowed to use 325 mg/day or more. • 8. Patients who have ever received systemic corticosteroids for 10 or more consecutive days within 1 month prior to screening visit (Visit 1). • 9. Presence of need or potential availability of systemic immunosuppressive drugs or immunomodulatory therapies (e.g., azathioprine, 6-mercaptopurine, and cyclosporine) • 10. Patients who have received high or moderate doses of cytochrome P450 3A4 inhibitors or P-glycoprotein inhibitors within 14 days prior to screening visit (Visit 1). • 11. History of xanthinuria. • 12. History of rheumatoid arthritis. • 13. Presence of active peptic ulcer disease requiring treatment. • 14. Presence of unstable angina, New York Heart Association class III or IV heart failure, myocardial infarction, stroke, deep vein thrombosis, percutaneous coronary intervention (with or without stent), or coronary artery bypass graft within the past 12 months prior to screening visit (Visit 1); current administration of anticoagulants; or the presence of clinically significant electrocardiogram abnormalities in the investigator's opinion at screening visit (Visit 1). • 15. Presence of uncontrolled hypertension (systolic blood pressure>160 mmHg or diastolic blood pressure>95 mmHg) at screening visit (Visit 1). • 16. History of myositis/myopathy, rhabdomyolysis, Stevens-Johnson syndrome, or toxic epidermal necrolysis. • 17. […]

[1] = Pharmacokinetics according to renal function of patients; format: in vivo, human; conditions: for AUC(0-t) / AUC / Cmax: both sexes, human, plasma, oral, 200 mg, 200 mg once daily, Day 7, plasma; for AUC(0-t): read-out: AUC0-t (AUC0-48 h), geometric LS mean; for AUC: read-out: AUCtau, geometric LS mean; for Cmax: read-out: Cmax, ss, geometric LS mean
Description: PK and PD of the compound of Example 1 were assessed under patient groups with various degrees of renal function. […] A total of 37 patients were classified into 4 groups as follows based on renal function according to eGFR which was calculated by MDRD formula: • Normal: eGFR≥90 mL/min/1.73 m^2, n=13 • Mild (mild renal function impairment): eGFR 60-less than 90 mL/min/1.73 m^2, n=8 • Moderate (moderate renal function impairment): eGFR 30-less than 60 mL/min/1.73 m^2, n=8 • Severe (severe renal function impairment): eGFR<30 mL/min/1.73 m^2 and not on hemodialysis, n=8
Blood and urine samples were collected before dosing and up to 24 or 48 hours after the final dosing for PK/PD assessment.
For the compound of Example 1, statistical analysis of pharmacokinetic parameters using an ANOVA model for the pharmacokinetic population is shown in Table 2 below. The ANOVA model was fitted to the log-transformed PK parameters, with renal function impairment group fitted as a fixed effect. Point estimates and 90% CIs for differences between the least square means on the log scale were exponentiated to express the results as ratios of geometric means and CIs on the original scale.

[2] = 200 mg/day oral, 12 weeks, listed as 1-(3-cyano-1-isopropyl-indol-5-yl)pyrazol-4-carboxylic acid
[3] = mild renal function impairment (eGFR 60-<90), 50 mg, 12 weeks
[4] = mild renal function impairment (eGFR 60-<90), 100 mg, 12 weeks
[5] = mild renal function impairment (eGFR 60-<90), 200 mg, 12 weeks
[6] = moderate renal function impairment (eGFR 30-<60), at each dose (50, 100, 200 mg), 12 weeks
[7] = normal renal function (eGFR>=90), 50 mg, 12 weeks
[8] = normal renal function (eGFR>=90), 100 mg, 12 weeks
[9] = normal renal function (eGFR>=90), 200 mg, 12 weeks
[10] = normal renal function (control)

CC(C)n1cc(C#N)c2cc(-n3cc(C(=O)O)cn3)ccc21 [Example 1, 1-(3-cyano-1-isopropyl-indol-5-yl)pyrazol-4-carboxylic acid]
average maximum degree of reduction in serum uric acid (serum uric acid; 50 mg): 46.7%
patients with serum uric acid concentration <4 mg/dL (serum uric acid; 50 mg/day oral, 12 weeks): 18% (6/34 people)
patients with serum uric acid concentration <6 mg/dL (serum uric acid; 50 mg/day oral, 12 weeks): 59%
average serum uric acid concentration (serum uric acid; 50 mg/day): 5.5 mg/dL
average maximum degree of reduction in serum uric acid (serum uric acid; 100 mg): 50.6%
patients with serum uric acid concentration <4 mg/dL (serum uric acid; 100 mg/day oral, 12 weeks): 29% (11/38 people)
patients with serum uric acid concentration <6 mg/dL (serum uric acid; 100 mg/day oral, 12 weeks): 63%
average serum uric acid concentration (serum uric acid; 100 mg/day): 4.9 mg/dL
average maximum degree of reduction in serum uric acid (serum uric acid; 200 mg): 66.8%
patients with serum uric acid concentration <4 mg/dL (serum uric acid; 200 mg/day oral, 12 weeks): 54% (20/37 people)
patients with serum uric acid concentration <6 mg/dL (serum uric acid; 200 mg/day oral, 12 weeks): 78%
patients with serum uric acid concentration <4 mg/dL (serum uric acid; [2]): 54%
patients with serum uric acid concentration <5 mg/dL (serum uric acid; [2]): 62%
average serum uric acid concentration (serum uric acid; 200 mg/day): 3.8 mg/dL
serum uric acid concentration kept within the normal range during the dosing period (serum uric acid; doses of 50 mg, 100 mg and 200 mg, from week 2, FIG. 2): < 6.0 mg/dL
patients adjusted to serum uric acid <5.0 mg/dL (serum uric acid; [3]): 33%
patients adjusted to serum uric acid <6.0 mg/dL (serum uric acid; [3]): 53%
patients adjusted to serum uric acid <5.0 mg/dL (serum uric acid; [4]): 44%
patients adjusted to serum uric acid <6.0 mg/dL (serum uric acid; [4]): 67%
patients adjusted to serum uric acid <5.0 mg/dL (serum uric acid; [5]): 55%
patients adjusted to serum uric acid <6.0 mg/dL (serum uric acid; [5]): 77%
patients adjusted to serum uric acid <5.0 mg/dL (serum uric acid; [6]): ≥ 50%
patients adjusted to serum uric acid <6.0 mg/dL (serum uric acid; [6]): ≥ 50%
patients adjusted to serum uric acid <5.0 mg/dL (serum uric acid; [7]): 53%
patients adjusted to serum uric acid <6.0 mg/dL (serum uric acid; [7]): 59%
patients adjusted to serum uric acid <5.0 mg/dL (serum uric acid; [8]): 43%
patients adjusted to serum uric acid <6.0 mg/dL (serum uric acid; [8]): 57%
patients adjusted to serum uric acid <5.0 mg/dL (serum uric acid; [9]): 71%
patients adjusted to serum uric acid <6.0 mg/dL (serum uric acid; [9]): 79%
AUC0-t, ratio of geometric LS means ([1]; Mild/Normal): 1.23
AUCtau, ratio of geometric LS means ([1]; Mild/Normal): 1.23
Cmax, ss, ratio of geometric LS means ([1]; Mild/Normal): 1.32
AUC0-t, ratio of geometric LS means ([1]; Moderate/Normal): 1.19
AUCtau, ratio of geometric LS means ([1]; Moderate/Normal): 1.17
Cmax, ss, ratio of geometric LS means ([1]; Moderate/Normal): 1.15
AUC0-t, ratio of geometric LS means ([1]; Severe/Normal): 1.16
AUCtau, ratio of geometric LS means ([1]; Severe/Normal): 1.26
Cmax, ss, ratio of geometric LS means ([1]; Severe/Normal): 0.885
AUC(0-t) ([1]; mild impairment): 36500 ng·h/mL
AUC ([1]; mild impairment): 38100 ng·h/mL
Cmax ([1]; mild impairment): 7460 ng/mL
AUC(0-t) ([1]; moderate impairment): 35200 ng·h/mL
AUC ([1]; moderate impairment): 36100 ng·h/mL
Cmax ([1]; moderate impairment): 6490 ng/mL
AUC(0-t) [1, 10]: 29700 ng·h/mL
AUC [1, 10]: 30900 ng·h/mL
Cmax [1, 10]: 5640 ng/mL
AUC(0-t) ([1]; severe impairment): 34300 ng·h/mL
AUC ([1]; severe impairment): 38900 ng·h/mL
Cmax ([1]; severe impairment): 4990 ng/mL

From patent US20240415814A1, “PHARMACEUTICAL COMPOSITION COMPRISING 1-(3-CYANO-1-ISOPROPYL-INDOL-5-YL)PYRAZOLE-4-CARBOXYLIC ACID” (LG CHEM, LTD., priority 2021, published 2024)
